The assay deals with Rho-associated protein kinase 1 (Homo sapiens, UniProt Q13464). In words: In Vitro Assay. Particulars: pH 7.5.

SMILES strings stand for the structures.

Rho-associated protein kinase 1, sequence (Q13464 whole entry): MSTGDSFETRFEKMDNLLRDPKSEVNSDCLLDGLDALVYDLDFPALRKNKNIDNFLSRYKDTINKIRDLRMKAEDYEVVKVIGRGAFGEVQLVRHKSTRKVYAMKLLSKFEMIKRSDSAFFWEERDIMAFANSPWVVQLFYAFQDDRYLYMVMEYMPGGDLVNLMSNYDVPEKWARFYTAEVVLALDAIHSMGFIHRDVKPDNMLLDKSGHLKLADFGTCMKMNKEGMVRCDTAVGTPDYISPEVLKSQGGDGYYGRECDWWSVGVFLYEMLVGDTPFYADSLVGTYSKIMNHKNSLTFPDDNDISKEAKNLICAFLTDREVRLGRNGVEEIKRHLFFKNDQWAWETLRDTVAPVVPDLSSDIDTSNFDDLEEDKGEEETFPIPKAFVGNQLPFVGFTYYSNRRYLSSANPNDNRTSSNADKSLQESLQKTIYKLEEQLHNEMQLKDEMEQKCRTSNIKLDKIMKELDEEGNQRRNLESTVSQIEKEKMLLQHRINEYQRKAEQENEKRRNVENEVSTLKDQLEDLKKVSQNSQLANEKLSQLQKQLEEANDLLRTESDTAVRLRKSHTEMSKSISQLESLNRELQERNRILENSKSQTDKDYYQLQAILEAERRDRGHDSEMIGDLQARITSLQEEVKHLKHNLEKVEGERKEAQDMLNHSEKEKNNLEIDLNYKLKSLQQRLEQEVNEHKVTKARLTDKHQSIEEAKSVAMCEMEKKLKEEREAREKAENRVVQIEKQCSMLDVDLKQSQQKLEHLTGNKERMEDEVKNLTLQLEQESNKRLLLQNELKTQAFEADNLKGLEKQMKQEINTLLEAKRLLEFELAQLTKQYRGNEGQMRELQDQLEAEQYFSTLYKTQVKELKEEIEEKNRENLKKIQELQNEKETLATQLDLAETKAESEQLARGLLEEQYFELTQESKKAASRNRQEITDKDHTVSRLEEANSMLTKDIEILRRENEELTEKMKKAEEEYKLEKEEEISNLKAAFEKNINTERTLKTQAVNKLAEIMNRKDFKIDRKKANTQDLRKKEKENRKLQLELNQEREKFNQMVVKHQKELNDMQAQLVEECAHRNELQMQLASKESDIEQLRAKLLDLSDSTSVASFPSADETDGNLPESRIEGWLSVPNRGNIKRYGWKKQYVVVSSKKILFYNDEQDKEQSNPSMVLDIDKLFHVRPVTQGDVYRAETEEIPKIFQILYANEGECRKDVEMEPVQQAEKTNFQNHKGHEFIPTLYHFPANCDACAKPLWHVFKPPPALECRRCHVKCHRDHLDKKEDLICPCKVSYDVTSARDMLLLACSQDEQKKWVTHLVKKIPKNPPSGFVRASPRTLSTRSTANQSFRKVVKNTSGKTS

In turn, `CNC(=O)C[C@@H](NC(=O)c1ccc(-c2cn[nH]c2)c(C)c1)c1ccccc1` [US9458110, 252] gave an IC50 of 0.0411 µM.

Usually IC50 stands for the concentration that inhibits the measured activity by half. A higher IC50 goes with lower potency.
